pIC50: −log10 of the molar value. One block for each compound: values may come before it.
Columns and labels:
MOLT-3 = test: Antiproliferative activity against human Molt3 cells; assay type: functional, cell-based
PC-3 = test: Antiproliferative activity against human PC3 cells; assay type: functional, cell-based
DU-145 = test: Antiproliferative activity against human DU145 cells; assay type: functional, cell-based
Bel-7402 = test: Antiproliferative activity against human Bel7402 cells; assay type: functional, cell-based
[1] = Antiproliferative activity against human DND1 cells; assay type: functional, cell-based
MCF7 = test: Antiproliferative activity against human MCF7 cells; assay type: functional, cell-based
CEM (Homo sapiens) [2] = test: Cell cycle arrest in human CEM cells by accumulation at S phase after 6 to 12 hrs at 6.14 uM
CEM (Homo sapiens) [3] = test: Cell cycle arrest in human CEM cells by accumulation at S phase after 6 hrs at 6.14 uM
CEM (Homo sapiens) [4] = test: Cell cycle arrest in human CEM cells by accumulation at S phase after 24 hrs at 6.14 uM

SMILES: CC(Br)C(=O)Nc1cccc(C(=O)NCCN(C)C)c1 (stereo unspecified)
pIC50 (MOLT-3): < 5.00

SMILES: COc1ccc2nc(NC(=O)c3cccc(NC(=O)C(C)Br)c3)sc2c1 (stereo unspecified)
pIC50 (MOLT-3): 5.78

SMILES: COc1cc(NC(=O)c2ccc(Cl)c(NC(=O)C(C)Br)c2)cc(OC)c1OC (stereo unspecified)
pIC50 (MOLT-3): 5.65

SMILES: CC(Br)C(=O)Nc1cccc(C(=O)N2CCN(C)CC2)c1 (stereo unspecified)
pIC50 (MOLT-3): < 5.00

SMILES: COc1ccc(/C=C\c2cc(OC)c(OC)c(OC)c2)cc1O [COMBRETASTATIN A4]
pIC50 (DU-145): 8.05 | pIC50 (MOLT-3): 7.05 | pIC50 [1]: 8.52

SMILES: CC(Br)C(=O)Nc1cccc(C(=O)Nc2ccc(F)cc2)c1 (stereo unspecified)
pIC50 (MOLT-3): 5.70

SMILES: COc1cc(C(=O)Nc2cccc(NC(=O)C(C)Br)c2)cc(OC)c1OC (stereo unspecified)
pIC50 (MOLT-3): 5.25

SMILES: CCCNC(=O)c1cccc(NC(=O)C(C)Br)c1 (stereo unspecified)
pIC50 (MOLT-3): 5.05

SMILES: CCOc1ccc(NC(=O)c2cc(NC(=O)C(C)Br)ccc2F)cc1 (stereo unspecified)
pIC50 (MOLT-3): < 5.00

SMILES: COc1cc([C@@H]2c3cc4c(cc3[C@H](O)[C@H]3COC(=O)[C@H]23)OCO4)cc(OC)c1OC [PODOFILOX]
pIC50 [1]: 7.92

SMILES: COc1cc(NC(=O)c2ccc(F)c(NC(=O)C(C)Br)c2)cc(OC)c1OC (stereo unspecified)
pIC50 (MOLT-3): 5.66

SMILES: CCCCNC(=O)c1cccc(NC(=O)C(C)Br)c1 (stereo unspecified)
pIC50 (MOLT-3): < 5.00

SMILES: COc1ccc(C(=O)Nc2cc(OC)c(OC)c(OC)c2)cc1NC(=O)C(C)Br (stereo unspecified)
pIC50 (MOLT-3): 5.37

SMILES: COc1cc(NC(=O)c2ccccc2NC(=O)C(C)Br)cc(OC)c1OC (stereo unspecified)
pIC50 (MOLT-3): 5.24

SMILES: COc1cc(NC(=O)c2ccc(NC(=O)C(C)Br)cc2)cc(OC)c1OC (stereo unspecified)
pIC50 (MOLT-3): 5.75

SMILES: CC(Br)C(=O)Nc1cccc(C(=O)NC(N)=O)c1 (stereo unspecified)
pIC50 (MOLT-3): 5.80

SMILES: COc1cc(NC(=O)NC(=O)c2cccc(NC(=O)C(C)Br)c2)cc(OC)c1OC (stereo unspecified)
pIC50 (MOLT-3): 5.37

Now from value to compound, other results behind:

pIC50 (MOLT-3): 5.90
SMILES: COc1cc(NS(=O)(=O)c2cccc(NC(=O)C(C)Br)c2)cc(OC)c1OC (stereo unspecified)

pIC50 (PC-3): 5.62 | pIC50 (DU-145): 5.63 | pIC50 (Bel-7402): 5.57 | pIC50 (MOLT-3): 6.30 | pIC50 (MCF7): 5.66
SMILES: COc1cc(NC(=O)c2cc(NC(=O)C(C)Br)ccc2F)ccn1 (stereo unspecified)
pIC50 [1]: 5.59

pIC50 (MOLT-3): 6.33
SMILES: COc1ccc(NC(=O)c2cc(NC(=O)C(C)Br)ccc2F)cc1OC (stereo unspecified)

pIC50 (MOLT-3): 5.97
SMILES: COc1cc(NC(=O)c2cc(NC(=O)C(C)Br)ccc2O)cc(OC)c1OC (stereo unspecified)

pIC50 (PC-3): 5.61 | pIC50 (DU-145): 5.19 | pIC50 (Bel-7402): 5.47 | pIC50 (MOLT-3): 6.60 | pIC50 (MCF7): 5.86
SMILES: COc1ccc(NC(=O)c2cc(NC(=O)C(C)Br)ccc2F)cc1 (stereo unspecified)
pIC50 [1]: 5.59

pIC50 (MOLT-3): 6.10
SMILES: COc1ccc(NC(=O)c2cccc(NC(=O)C(C)Br)c2)cc1 (stereo unspecified)

pIC50 (PC-3): 5.50 | pIC50 (DU-145): 5.19 | pIC50 (Bel-7402): 5.28 | pIC50 (MOLT-3): 6.29 | pIC50 (MCF7): 6.07
SMILES: COc1cc(NC(=O)c2cccc(NC(=O)C(C)Br)c2)ccc1O (stereo unspecified)
pIC50 [1]: 5.91

pIC50 (MOLT-3): 6.21
SMILES: COc1cc(NC(=O)c2cccc(NC(=O)C(C)Br)c2)cc(OC)c1 (stereo unspecified)

pIC50 (PC-3): 5.63 | pIC50 (DU-145): 5.73 | pIC50 (Bel-7402): 5.63 | pIC50 (MOLT-3): 6.92 | pIC50 (MCF7): 5.91
SMILES: COc1ccc(NC(=O)c2cccc(NC(=O)C(C)Br)c2)cc1OC (stereo unspecified)
Activity (CEM (Homo sapiens) [2]): 62.7% | Activity (CEM (Homo sapiens) [3]): 52.9% | Activity (CEM (Homo sapiens) [4]): 61.9% | pIC50 [1]: 5.85

pIC50 (MOLT-3): 6.21
SMILES: CC(Br)C(=O)Nc1cccc(C(=O)Nc2ccc3c(c2)OCO3)c1 (stereo unspecified)

pIC50 (PC-3): 5.66 | pIC50 (DU-145): 5.69 | pIC50 (Bel-7402): 5.69 | pIC50 (MOLT-3): 6.38 | pIC50 (MCF7): 5.68
SMILES: COc1cc(NC(=O)c2cc(NC(=O)C(C)Br)ccc2F)cc(OC)c1OC (stereo unspecified)
pIC50 [1]: 5.38

pIC50 (MOLT-3): 5.82
SMILES: CC(Br)C(=O)Nc1cccc(C(=O)Nc2ccc3[nH]c4ccccc4c3c2)c1 (stereo unspecified)

pIC50 (MOLT-3): 6.07
SMILES: COc1cc(NC(=O)c2cc(NC(=O)C(C)Br)ccc2F)ccc1O (stereo unspecified)

pIC50 (PC-3): 5.61 | pIC50 (DU-145): 5.71 | pIC50 (Bel-7402): 5.58 | pIC50 (MOLT-3): 6.17 | pIC50 (MCF7): 5.83
SMILES: COc1cc(NC(=O)c2cccc(NC(=O)C(C)Br)c2)cc(OC)c1OC (stereo unspecified)
pIC50 [1]: 5.65
